Where two headings read alike, the source gives them in different places.
Biological target: T1, F508delCFTR (Homo sapiens, UniProt P13569, DEL508-508)
T1 construct: expressed in transfected cells; host or cells: CFBE41o- human lung-derived epithelial cells (CFBE4lo-F508delCFTR-HRP), doxycycline-inducible
Assay: Cell Surface Expression-Horse Radish Peroxidase (CSE-HRP) Assay;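 on Maximum % activity (with co-corrector): co-corrector and positive control are both the same reference corrector at 2 µM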;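 on Maximum % activity (without co-corrector): percent of the 2 µM on-plate positive control corrector response above DMSO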
Type: cell-based
Settings: for Maximum % activity (with co-corrector) / Emax: maximum at any tested concentration, normalized to on-plate positive control; for Emax: read-out: Maximum % activity (without co-corrector)

[1] = CSE-HRP, test compound without co-corrector, read-out: EC50 (without co-corrector)
[2] = CSE-HRP, with co-corrector (2 μM of 3-[(2R,4R)-4-({[1-(2,2-difluoro-1,3-benzodioxol-5-yl)cyclopropyl]carbonyl}amino)-7-methoxy-3,4-dihydro-2H-chromen-2-yl]benzoic acid), read-out: EC50 (with co-corrector)
[3] = CSE-HRP, with co-corrector (2 μM)
[4] = test compound without co-corrector
[5] = test compound without co-corrector, read-out: EC50 (without co-corrector)
[6] = with co-corrector (2 μM of 3-[(2R,4R)-4-({[1-(2,2-difluoro-1,3-benzodioxol-5-yl)cyclopropyl]carbonyl}amino)-7-methoxy-3,4-dihydro-2H-chromen-2-yl]benzoic acid)
[7] = with co-corrector (2 μM of 3-[(2R,4R)-4-({[1-(2,2-difluoro-1,3-benzodioxol-5-yl)cyclopropyl]carbonyl}amino)-7-methoxy-3,4-dihydro-2H-chromen-2-yl]benzoic acid), read-out: EC50 (with co-corrector)

T1 sequence (P13569 with tags, fused parts or gaps DEL508-508): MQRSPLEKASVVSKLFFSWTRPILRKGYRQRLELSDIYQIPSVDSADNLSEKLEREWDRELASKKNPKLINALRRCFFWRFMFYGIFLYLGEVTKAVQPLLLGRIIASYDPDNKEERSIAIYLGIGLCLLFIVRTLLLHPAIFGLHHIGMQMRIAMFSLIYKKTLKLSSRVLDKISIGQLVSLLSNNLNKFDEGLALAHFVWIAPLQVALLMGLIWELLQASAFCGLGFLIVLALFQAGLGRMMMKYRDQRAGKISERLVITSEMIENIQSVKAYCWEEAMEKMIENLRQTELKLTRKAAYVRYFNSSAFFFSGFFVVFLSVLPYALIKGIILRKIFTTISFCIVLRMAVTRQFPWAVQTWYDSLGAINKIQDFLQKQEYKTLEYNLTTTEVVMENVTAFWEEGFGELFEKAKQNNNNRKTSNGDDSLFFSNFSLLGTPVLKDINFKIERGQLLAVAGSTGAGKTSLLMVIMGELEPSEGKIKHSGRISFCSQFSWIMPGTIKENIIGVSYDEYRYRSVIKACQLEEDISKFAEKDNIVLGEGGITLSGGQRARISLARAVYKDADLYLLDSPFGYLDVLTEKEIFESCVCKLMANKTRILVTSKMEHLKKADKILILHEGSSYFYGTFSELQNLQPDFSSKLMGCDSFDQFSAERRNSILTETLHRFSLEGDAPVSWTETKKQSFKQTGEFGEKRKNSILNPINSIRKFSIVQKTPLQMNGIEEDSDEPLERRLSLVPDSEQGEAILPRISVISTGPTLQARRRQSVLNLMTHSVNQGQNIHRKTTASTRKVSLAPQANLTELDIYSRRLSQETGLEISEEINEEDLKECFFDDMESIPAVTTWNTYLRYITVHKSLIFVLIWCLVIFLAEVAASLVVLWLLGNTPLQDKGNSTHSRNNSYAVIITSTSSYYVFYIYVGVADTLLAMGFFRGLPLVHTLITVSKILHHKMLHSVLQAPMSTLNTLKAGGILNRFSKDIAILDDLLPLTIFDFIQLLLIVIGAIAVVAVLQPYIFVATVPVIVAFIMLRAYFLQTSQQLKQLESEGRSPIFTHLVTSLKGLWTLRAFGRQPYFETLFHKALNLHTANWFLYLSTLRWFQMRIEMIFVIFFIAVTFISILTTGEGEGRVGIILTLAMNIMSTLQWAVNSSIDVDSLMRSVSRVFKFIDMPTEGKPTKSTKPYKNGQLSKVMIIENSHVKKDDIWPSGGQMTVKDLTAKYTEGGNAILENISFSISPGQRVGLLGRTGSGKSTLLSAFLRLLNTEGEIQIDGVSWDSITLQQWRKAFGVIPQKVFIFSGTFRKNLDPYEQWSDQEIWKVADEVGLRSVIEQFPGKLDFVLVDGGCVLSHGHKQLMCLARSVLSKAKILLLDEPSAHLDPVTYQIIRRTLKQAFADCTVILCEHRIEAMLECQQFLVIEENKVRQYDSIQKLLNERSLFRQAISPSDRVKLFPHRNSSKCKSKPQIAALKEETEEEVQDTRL

| SMILES | EC50 [1] [nM] | EC50 [2] [nM] | Maximum % activity (with co-corrector) [3] | Emax (CSE-HRP, without co-corrector) [%] | Emax [4] [%] | EC50 [5] [nM] | Maximum % activity (with co-corrector) [6] | EC50 [7] [nM] | Maximum % activity (with co-corrector) (with co-corrector (2 μM)) | Emax (without co-corrector) [%] |
| --- | --- | --- | --- | --- | --- | --- | --- | --- | --- | --- |
| Cc1cc(C(F)(F)F)cc(N[C@H]2[C@H](C(C)(C)C)[C@@H](C(=O)O)N(C(=O)C3CCCCC3)[C@H]2c2ccccn2)n1 (racemic) [II-53] | 1000 to 10000 | 1000 to 10000 | ++ (≥150 and <350) | < 100 | – | – | – | – | – | – |
| COc1ccc(C(C)(C)C)cc1CN[C@H]1[C@H](C(C)(C)C)[C@@H](C(=O)O)N(C(=O)c2c(C)nn3c2CCCC3)[C@H]1c1ccccc1 [II-363] | – | – | – | – | 100 to 200 | 1000 to 10000 | +++ (≥350) | 1000 to 10000 | – | – |
| COc1ncc(C(F)(F)F)cc1CN[C@H]1[C@H](C(C)(C)C)[C@@H](C(=O)O)N(C(=O)[C@@H]2OCC[C@@H]2Cn2cccn2)[C@H]1c1ccccc1 [III-200] | – | – | – | – | < 100 | > 10000 | – | 1000 to 10000 | ++ (≥150 and <350) | – |
| COc1ccc(C(C)C)cc1CN[C@H]1[C@H](C(C)(C)C)[C@@H](C(=O)O)N(C(=O)C2CCCCC2)[C@H]1c1ccccc1F [Example I-111] | – | – | – | – | – | 1000 to 10000 | – | < 1000 | +++ (≥350) | 100 to 200 |
| COc1ccc(-c2cnn(C3CCC3)c2)cc1CN[C@H]1[C@H](C(C)(C)C)[C@@H](C(=O)O)N(C(=O)C2CCCCC2)[C@H]1c1ccccc1 [II-290] | 1000 to 10000 | 1000 to 10000 | ++ (≥150 and <350) | < 100 | – | – | – | – | – | – |
| COc1ccc(C(C)(C)C)cc1CN[C@H]1[C@H](C(C)(C)C)[C@@H](C(=O)O)N(C(=O)[C@H]2OCC[C@H]2c2ccccc2)[C@H]1c1ccccc1 (relative stereo) [Example I-179] | – | – | – | – | – | 1000 to 10000 | – | 1000 to 10000 | +++ (≥350) | 100 to 200 |
| COc1ccc(C(C)(C)C)cc1CN[C@H]1[C@H](C(C)(C)C)[C@@H](C(=O)O)N(C(=O)Cc2cc(F)cc(F)c2)[C@H]1c1ccccc1 [II-200] | 1000 to 10000 | < 1000 | +++ (≥350) | 100 to 200 | – | – | – | – | – | – |
| COc1ccc(Cl)cc1CN[C@@H]1[C@@H](C2CC2)[C@H](C(=O)O)N(C(=O)C2CCCCC2)[C@@H]1c1ccccc1 (racemic) [II-12] | 1000 to 10000 | 1000 to 10000 | +++ (≥350) | 100 to 200 | – | – | – | – | – | – |
| Cc1cc(C(F)(F)F)cc(N[C@@H]2[C@@H](C(C)(C)C)[C@H](C(=O)O)N(C(=O)C3CCC4(CC3)CC4)[C@@H]2c2ccccc2)n1 (racemic) [Example I-37] | – | – | – | – | – | > 10000 | – | 1000 to 10000 | ++ (≥150 and <350) | < 100 |
| COc1ccc(C(C)(C)C)cc1CN[C@H]1[C@H](C(C)(C)C)[C@@H](C(=O)O)N(C(=O)Cc2ccc(F)c(F)c2)[C@H]1c1ccccc1 [III-172] | – | – | – | – | 100 to 200 | 1000 to 10000 | – | < 1000 | +++ (≥350) | – |
| COc1cc2c(cc1CN[C@H]1[C@H](C(C)(C)C)[C@@H](C(=O)O)N(C(=O)OC(C)C)[C@H]1c1ccccc1C)CCC2 [Example 90, (2S,3S,4S,5S)-3-tert-butyl-4-{[(6-methoxy-2,3-dihydro-1H-inden-5-yl)methyl]amino}-5-(2-methylphenyl)-1-{[(propan-2-yl)oxy]carbonyl}pyrrolidine-2-carboxylic acid] | – | – | – | – | – | 1000 to 10000 | – | 1000 to 10000 | +++ (≥350) | > 200 |
| COc1ccc(C(C)(C)C)cc1CN[C@H]1[C@H](C(C)(C)C)[C@@H](C(=O)O)N(C(=O)C2Cc3ccccc3S2)[C@H]1c1ccccc1 (stereo partly shown) [II-314] | 1000 to 10000 | < 1000 | +++ (≥350) | > 200 | – | – | – | – | – | – |
| Cc1cc(C(F)(F)F)cc(N[C@@H]2[C@@H](C)[C@H](C(=O)O)N(C(=O)N(C(C)C)C(C)C)[C@@H]2c2ccccc2)n1 [II-11] | 1000 to 10000 | 1000 to 10000 | +++ (≥350) | < 100 | – | – | – | – | – | – |
| COc1ccc(SC(F)(F)F)cc1CN[C@H]1[C@H](C(C)(C)C)[C@@H](C(=O)O)N(C(=O)OC(C)C)[C@H]1c1cccnc1N(C)C [III-225] | – | – | – | – | > 200 | 1000 to 10000 | – | 1000 to 10000 | +++ (≥350) | – |

Continued, values first:

| EC50 [1] [nM] | EC50 [2] [nM] | Maximum % activity (with co-corrector) [3] | Emax (CSE-HRP, without co-corrector) [%] | Emax [4] [%] | EC50 [5] [nM] | Maximum % activity (with co-corrector) [6] | EC50 [7] [nM] | Maximum % activity (with co-corrector) (with co-corrector (2 μM)) | Emax (without co-corrector) [%] | SMILES |
| --- | --- | --- | --- | --- | --- | --- | --- | --- | --- | --- |
| – | – | – | – | 100 to 200 | 1000 to 10000 | +++ (≥350) | 1000 to 10000 | – | – | COc1ccc(C(C)(C)C)cc1CN[C@H]1[C@H](C(C)(C)C)[C@@H](C(=O)O)N(C(=O)C2CCCCO2)[C@H]1c1cccnc1OC(F)F (single isomer, unassigned) [II-489] |
| 1000 to 10000 | 1000 to 10000 | +++ (≥350) | < 100 | – | – | – | – | – | – | CC(C)(C)[C@H]1[C@H](NCc2cc(Cl)ccc2Cl)[C@H](c2ccccc2)N(C(=O)C2CCCCC2)[C@@H]1C(=O)O [II-105] |
| – | – | – | – | – | > 10000 | – | 1000 to 10000 | ++ (≥150 and <350) | < 100 | CC(N[C@@H]1[C@@H](C(C)(C)C)[C@H](C(=O)O)N(C(=O)C2CCCCC2)[C@@H]1c1ccccc1)c1ccc2c(c1)OC(F)(F)O2 (mixture of isomers) [Example I-3] |
| > 10000 | < 1000 | + (<150) | < 100 | – | – | – | – | – | – | CC(C)c1ccccc1[C@H]1[C@@H](NCc2cc(C(C)(C)C)ccc2O)[C@H](C(C)(C)C)[C@@H](C(=O)O)N1C(=O)[C@@H]1CCCO1 [Example I-285] |
| – | – | – | – | > 200 | 1000 to 10000 | +++ (≥350) | 1000 to 10000 | – | – | COc1ccc(C(C)(C)C)cc1CN[C@H]1[C@H](C(C)(C)C)[C@@H](C(=O)O)N(C(=O)CC(C)C)[C@H]1c1ccccc1 [II-564] |
| – | – | – | – | > 200 | < 1000 | – | < 1000 | +++ (≥350) | – | COc1ccc(C(C)(C)C)cc1CN[C@H]1[C@H](C(C)(C)C)[C@@H](C(=O)O)N(C(=O)C2CCCCC2C)[C@H]1c1ccccc1 (stereo partly shown) [III-195] |
| – | – | – | – | – | 1000 to 10000 | – | 1000 to 10000 | +++ (≥350) | > 200 | COc1ccc(C(C)(C)C)cc1CN[C@H]1[C@H](C(C)(C)C)[C@@H](C(=O)O)N(C(=O)[C@@H]2C[C@H]2c2cccnc2)[C@H]1c1ccccc1 (relative stereo) [Example I-139] |
| – | – | – | – | > 200 | 1000 to 10000 | +++ (≥350) | 1000 to 10000 | – | – | COc1ccc(Cl)cc1CN[C@@H]1[C@@H](C(C)(C)C)[C@H](C(=O)O)N(C(=O)C2CCCCC2)[C@@H]1c1ccccc1 (racemic) [III-27] |
| – | – | – | – | – | 1000 to 10000 | – | 1000 to 10000 | +++ (≥350) | > 200 | COc1ccc(C(C)(C)C)cc1CN[C@H]1[C@H](C(C)(C)C)[C@@H](C(=O)O)N(C(=O)CN2CCCCCC2)[C@H]1c1ccccc1 [Example I-100] |
| – | – | – | – | > 200 | 1000 to 10000 | +++ (≥350) | 1000 to 10000 | – | – | COc1ccc(C23CC(C2)C3)cc1CN[C@H]1[C@H](C(C)(C)C)[C@@H](C(=O)O)N(C(=O)[C@@H]2CCC[C@@H](OC)C2)[C@H]1c1ccccc1 [II-479] |
| 1000 to 10000 | 1000 to 10000 | +++ (≥350) | < 100 | – | – | – | – | – | – | COc1ccc(C(F)(F)F)cc1CN[C@@H]1[C@@H](C(C)(C)C)[C@H](C(=O)O)N(C(=O)C2CCC(F)(F)CC2)[C@@H]1c1ccccc1 (racemic) [II-68] |
| 1000 to 10000 | 1000 to 10000 | +++ (≥350) | < 100 | – | – | – | – | – | – | COc1ccc(Br)c(CN[C@H]2[C@H](C(C)(C)C)[C@@H](C(=O)O)N(C(=O)C3CCCCC3)[C@H]2c2ccccc2)c1 [II-110] |
| – | – | – | – | < 100 | 1000 to 10000 | +++ (≥350) | 1000 to 10000 | – | – | COc1ccc(C(F)(F)F)cc1CN[C@H]1[C@H](C(C)(C)C)[C@@H](C(=O)O)N(C(=O)C2CCc3ccc(F)cc3O2)[C@H]1c1ccccc1 (stereo partly shown) [II-398] |
| 1000 to 10000 | 1000 to 10000 | +++ (≥350) | 100 to 200 | – | – | – | – | – | – | COc1ccc(C(F)(F)F)cc1CN[C@H]1[C@H](C(C)(C)C)[C@@H](C(=O)O)N(C(=O)C2Cc3ccccc3CO2)[C@H]1c1ccccc1 (stereo partly shown) [II-299] |
| – | – | – | – | > 200 | 1000 to 10000 | – | 1000 to 10000 | +++ (≥350) | – | COc1ccc(OC(F)(F)F)cc1CN[C@H]1[C@H](C(C)(C)C)[C@@H](C(=O)O)N(C(=O)OC(C)C)[C@H]1c1cccnc1OC(C)C [III-231] |
| – | – | – | – | < 100 | > 10000 | – | > 10000 | + (<150) | – | CC(C)(C)[C@H]1[C@H](NCc2ccc(F)cc2C#N)[C@H](c2ccccc2)N(C(=O)C2CCCCC2)[C@@H]1C(=O)O [III-127] |
| 1000 to 10000 | 1000 to 10000 | +++ (≥350) | 100 to 200 | – | – | – | – | – | – | COc1ccc(C(C)(C)C)cc1CN[C@H]1[C@H](C(C)(C)C)[C@@H](C(=O)O)N(C(=O)Cc2cccnc2)[C@H]1c1ccccc1 [II-184] |

Reference: patent US20180099931A1 (AbbVie S.à.r.l., priority 2016, published 2018)
